# Literature values, collected in patent US10821185B2, “Triglyceride otic formulations and uses thereof” (Otonomy, Inc., priority 2016, dated 2020).
# pIC50: −log10 of the molar value. Counter-ions that a name gives are not always drawn.
# Tests used:
# [1] = target: D136A mutant VP2 receptor (Homo sapiens, UniProt P30518, D136A)
# [2] = test system: V2-R; conditions: infusion into the scala tympani
# [3] = test system: rat arthritis model; conditions: 30 mg/kg
# [4] = systemically treated
# [5] = test system: mouse collagen-induced arthritis model; conditions: 30 mg/kg dose
# [6] = systemic administration
# [7] = test system: LPS-induced MonoMac-6 cells; conditions: read-out: IC50 for inhibiting TNF-α production
# [8] = test system: tinnitus; conditions: administered by IV
# [9] = test system: TNF-α; conditions: LPS-challenged mice
# [10] = test system: LPS-induced human PBMC cells; conditions: read-out: IC50 for inhibiting TNF-α production
# [11] = after topical application
compound,measurement,setting,value
"Cc1ccccc1C(=O)Nc1ccc(C(=O)N2CCCC(N(C)C)c3ccccc32)cc1 (racemic) [OPC-31260, (±)-5-dimethylamino-1-(4-[2-methylbenzoylamino]benzoyl)-2,3,4,5-tetrahydro-1H-benzazepin hydrochloride]",behaviour at constitutively activated D136A mutant VP2 receptor,[1],inverse agonist
same,Meniere's disease symptoms,[2],marked reduction of Meniere's disease symptoms
COc1cccc2nc(-c3cccs3)nc(NN3C(=O)C=C(C)C3=O)c12 [SPC-839],paw edema,[3],reduces paw edema
etanercept,patients experiencing injection site reactions,[4],over one-third of patients
Cc1ccc2nc(NCCN)c3ncc(C)n3c2c1 [BMS-345541],severity of disease,[5],significantly reduced the severity of disease
adalimumab,"patients developing injection site reactions (erythema and/or itching, hemorrhage, pain and/or swelling)",[6],20%
CC(C)C[C@@H](C(=O)N[C@@H](CCCN/C(N)=N/[N+](=O)[O-])C(=O)Nc1nccs1)[C@H](C(C)C)N(O)C=O [Nitroarginine analog A],pIC50,[7],7.47
CCN(CC)CC(=O)Nc1c(C)cccc1C [Lidocaine],sufferers in whom the noise associated with tinnitus is reduced or eliminated,[8],60-80%
O=C(Nc1cc(Cl)cc2c1[nH]c1cnccc12)c1cccnc1 [PS-1145],production of TNF-α,[9],reduces the production of TNF-α
CC[C@H](C)[C@H](NC(=O)[C@H](CC(C)C)[C@H](C(C)C)N(O)C=O)C(=O)Nc1ccccn1 [GW3333],pIC50,[10],6.01
"C=CC[C@@H]1/C=C(\C)C[C@H](C)C[C@H](OC)[C@H]2O[C@@](O)(C(=O)C(=O)N3CCCC[C@H]3C(=O)O[C@H](/C(C)=C/[C@@H]3CC[C@@H](O)[C@H](OC)C3)[C@H](C)[C@@H](O)CC1=O)[C@H](C)C[C@@H]2OC (relative stereo) [tacrolimus, [3S-[3R*[E(1S*,3S*,4S*)], 4S*,5R*,8S*,9E,12R*,14R*,15S*,16R*,18S*,19S*,26aR*]]-5,6,8,11,12,13,14,15,16,17,18,19,24,25,26,26a-hexadecahydro-5,19-dihydroxy-3-[2-(4-hydroxy-3-methoxycyclohexyl)-1-methylethenyl]-14,16-dimethoxy-4,10,12,18-tetramethyl-8-(2-propenyl)-15,19-epoxy-3H-pyrido[2,1-39c][1,4]oxaazacyclotricosine-1,7,20,21(4H,23H)-tetrone monohydrate]",bioavailability,[11],less than 0.5%
"CCOc1ccc2c(c1)C1(CCC(OCCN3CCOCC3)CC1)C(=O)N2S(=O)(=O)c1ccc(C(=O)NC(C)(C)C)cc1OC (stereo not drawn) [SR-1211463, 1-(4-(N-tert-butylcarbamoyl)-2-methoxybenzenesulfonyl)-5-ethoxy-3-spiro-(4-(2-morpholinoethoxy)cyclohexane)indol-2-one fumarate]",behaviour at constitutively activated D136A mutant VP2 receptor,[1],inverse agonist
